Assay results as given in ChEMBL document CHEMBL4368860, “Structure activity relationship of 2-arylalkynyl-adenine derivatives as human A3 adenosine receptor antagonists” (Medchemcomm, 2018).

Tests used:
[1] = molecular target: Sigma intracellular receptor 2 (Homo sapiens, UniProt Q5BJF2); assay: Displacement of [3H]-DTG from human sigma 2 receptor
Adenosine receptor A3 [2] = molecular target: T1, Adenosine receptor A3 (Homo sapiens, UniProt P0DMS8); assay: Displacement of [125I]I-AB-MECA from recombinant human adenosine A3 receptor expressed in CHO cell membranes
T1 sequence (P0DMS8 whole entry): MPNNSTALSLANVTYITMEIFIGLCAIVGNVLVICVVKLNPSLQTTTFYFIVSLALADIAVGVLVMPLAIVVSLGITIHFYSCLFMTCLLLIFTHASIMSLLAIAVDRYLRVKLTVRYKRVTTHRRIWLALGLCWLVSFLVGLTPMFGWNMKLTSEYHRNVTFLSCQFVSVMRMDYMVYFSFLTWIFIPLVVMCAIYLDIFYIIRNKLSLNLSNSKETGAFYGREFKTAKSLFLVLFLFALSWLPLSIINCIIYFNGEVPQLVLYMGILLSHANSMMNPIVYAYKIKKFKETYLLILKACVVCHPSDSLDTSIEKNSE

Adenosine receptor A3 [3] = molecular target: Adenosine receptor A3 (Mus musculus, UniProt Q61618); assay: Displacement of [125I]I-AB-MECA from recombinant mouse adenosine A3 receptor expressed in HEK293 cell membranes
Chain of Adenosine receptor A3 (Mus musculus, UniProt Q61618) (Q61618 whole entry): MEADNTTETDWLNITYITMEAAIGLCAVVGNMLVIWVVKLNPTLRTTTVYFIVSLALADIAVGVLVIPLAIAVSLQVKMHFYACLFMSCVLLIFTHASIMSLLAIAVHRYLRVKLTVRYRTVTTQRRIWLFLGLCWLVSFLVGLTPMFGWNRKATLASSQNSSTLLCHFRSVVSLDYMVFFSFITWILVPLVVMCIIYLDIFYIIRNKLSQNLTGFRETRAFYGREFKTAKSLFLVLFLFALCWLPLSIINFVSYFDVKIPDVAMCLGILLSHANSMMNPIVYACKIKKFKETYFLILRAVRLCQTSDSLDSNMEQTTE

[4] = molecular target: Adenosine receptor A1 (Mus musculus) (UniProt Q60612); assay: Displacement of [3H]DPCPX from mouse A1 receptor at 10 uM
Chain of Adenosine receptor A1 (Mus musculus) (Q60612 whole entry): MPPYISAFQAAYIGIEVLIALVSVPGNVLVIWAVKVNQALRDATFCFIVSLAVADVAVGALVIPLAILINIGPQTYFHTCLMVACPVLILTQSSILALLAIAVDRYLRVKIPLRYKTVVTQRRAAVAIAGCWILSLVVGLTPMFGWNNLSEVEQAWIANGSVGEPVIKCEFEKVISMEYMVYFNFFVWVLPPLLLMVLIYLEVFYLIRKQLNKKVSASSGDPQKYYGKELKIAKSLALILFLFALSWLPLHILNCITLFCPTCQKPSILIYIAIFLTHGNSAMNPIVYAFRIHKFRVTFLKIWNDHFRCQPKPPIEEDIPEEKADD

Homo sapiens = species on record: Homo sapiens; assay: Selectivity ratio of Ki for displacement of [125I]I-AB-MECA from recombinant mouse adenosine A3 receptor expressed in HEK293 cell membranes to Ki for displacement of [125I]I-AB-MECA from recombinant human adenosine A3 receptor
Adenosine receptor A2a [5] = molecular target: Adenosine receptor A2a (Homo sapiens, UniProt P29274); assay: Displacement of [3H]ZM241385 from human A2A receptor expressed in HEK293 cell membranes at 10 uM; settings: HEK293 cell membranes expressing human A2A receptor, probe [3H]ZM241385
Chain of Adenosine receptor A2a (Homo sapiens, UniProt P29274) (P29274 whole entry): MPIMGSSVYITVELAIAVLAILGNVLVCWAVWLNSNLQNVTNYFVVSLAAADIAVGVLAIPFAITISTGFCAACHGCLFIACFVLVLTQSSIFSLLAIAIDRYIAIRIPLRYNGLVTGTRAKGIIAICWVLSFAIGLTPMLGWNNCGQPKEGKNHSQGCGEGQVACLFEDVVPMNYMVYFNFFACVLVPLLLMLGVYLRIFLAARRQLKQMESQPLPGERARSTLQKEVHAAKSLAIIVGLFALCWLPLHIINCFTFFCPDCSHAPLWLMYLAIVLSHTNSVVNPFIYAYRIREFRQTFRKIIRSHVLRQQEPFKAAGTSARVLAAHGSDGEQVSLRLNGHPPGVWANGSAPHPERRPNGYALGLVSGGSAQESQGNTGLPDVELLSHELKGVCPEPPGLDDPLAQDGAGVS

[6] = molecular target: Sodium-dependent noradrenaline transporter (Homo sapiens, UniProt P23975); assay: Displacement of [3H]Nisoxetine from human NET expressed in HEK cells by radioligand binding assay; type: cell-based
Chain of Sodium-dependent noradrenaline transporter (P23975 whole entry): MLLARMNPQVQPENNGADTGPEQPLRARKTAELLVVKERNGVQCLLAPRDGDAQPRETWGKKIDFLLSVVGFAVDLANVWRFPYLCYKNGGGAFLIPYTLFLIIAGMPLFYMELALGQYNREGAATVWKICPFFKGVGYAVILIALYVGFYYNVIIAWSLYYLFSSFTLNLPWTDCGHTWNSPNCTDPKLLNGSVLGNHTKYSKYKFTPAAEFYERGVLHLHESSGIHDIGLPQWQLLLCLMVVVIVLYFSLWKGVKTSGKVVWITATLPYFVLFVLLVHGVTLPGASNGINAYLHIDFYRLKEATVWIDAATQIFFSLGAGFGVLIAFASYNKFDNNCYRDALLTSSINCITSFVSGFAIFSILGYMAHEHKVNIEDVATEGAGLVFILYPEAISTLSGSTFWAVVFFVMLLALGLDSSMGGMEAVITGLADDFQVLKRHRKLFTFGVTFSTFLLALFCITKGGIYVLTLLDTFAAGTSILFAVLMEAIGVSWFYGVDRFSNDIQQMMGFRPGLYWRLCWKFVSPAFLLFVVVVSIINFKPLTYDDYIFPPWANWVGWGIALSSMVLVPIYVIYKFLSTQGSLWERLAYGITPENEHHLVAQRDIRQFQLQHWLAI

[7] = molecular target: T2, Adenosine receptor A1 (Homo sapiens) (UniProt P30542); assay: Displacement of [3H]DPCPX from recombinant human A1 receptor expressed in CHO cell membranes at 10 uM
T2 sequence (whole entry): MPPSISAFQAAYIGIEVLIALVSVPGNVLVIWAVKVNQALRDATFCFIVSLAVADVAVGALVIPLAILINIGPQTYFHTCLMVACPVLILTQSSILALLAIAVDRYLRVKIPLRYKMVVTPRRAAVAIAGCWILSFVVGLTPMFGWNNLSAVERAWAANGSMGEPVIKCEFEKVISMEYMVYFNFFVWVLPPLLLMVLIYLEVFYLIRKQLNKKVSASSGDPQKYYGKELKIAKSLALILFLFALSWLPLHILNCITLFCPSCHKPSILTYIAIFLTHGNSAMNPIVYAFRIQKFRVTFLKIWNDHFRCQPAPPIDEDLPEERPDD

Adenosine receptor A2a [8] = molecular target: Adenosine receptor A2a (Mus musculus, UniProt Q60613); assay: Displacement of [3H]ZM241385 from mouse A2A receptor at 10 uM; settings: probe [3H]ZM241385
Chain of Adenosine receptor A2a (Mus musculus, UniProt Q60613) (Q60613 whole entry): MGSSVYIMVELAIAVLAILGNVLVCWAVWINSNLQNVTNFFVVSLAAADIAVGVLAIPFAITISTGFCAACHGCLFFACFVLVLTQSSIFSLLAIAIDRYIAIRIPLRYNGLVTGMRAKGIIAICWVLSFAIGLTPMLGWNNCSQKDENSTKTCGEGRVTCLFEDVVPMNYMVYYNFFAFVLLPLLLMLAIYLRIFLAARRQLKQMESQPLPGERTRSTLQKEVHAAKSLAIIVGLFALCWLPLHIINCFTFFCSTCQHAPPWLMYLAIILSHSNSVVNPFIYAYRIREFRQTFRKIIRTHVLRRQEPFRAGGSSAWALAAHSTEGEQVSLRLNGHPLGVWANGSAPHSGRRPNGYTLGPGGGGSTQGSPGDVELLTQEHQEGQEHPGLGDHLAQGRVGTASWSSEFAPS

Chain of Sigma intracellular receptor 2 (Q5BJF2 whole entry): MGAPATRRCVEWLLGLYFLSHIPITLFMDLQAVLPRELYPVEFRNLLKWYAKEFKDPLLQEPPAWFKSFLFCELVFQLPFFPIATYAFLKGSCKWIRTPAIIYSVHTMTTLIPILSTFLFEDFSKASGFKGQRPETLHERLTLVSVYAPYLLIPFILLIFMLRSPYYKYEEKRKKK

For C[C@@]12C[C@@H]1[C@@H](n1cnc3c(NCCc4ccccc4)nc(C#Cc4ccccc4)nc31)[C@H](O)[C@@H]2O, the Ki [1] was 1300 nM, the Ki (Adenosine receptor A3 [2]) was 20 nM and the Ki (Adenosine receptor A3 [3]) was 480 nM. It also gave an inhibition [4] of 39%, a Ratio Ki (Homo sapiens) of 24 and an inhibition at 10 µM (Adenosine receptor A2a [5]) of 22%. For the same compound, the Ki [6] was 2800 nM, the inhibition [7] was 30% and the inhibition at 10 µM (Adenosine receptor A2a [8]) was 13%.
